Reference: ChEMBL document CHEMBL1201862, “PubChem BioAssay data set” (2004)
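Compound exposure: 48 hours, 5 concentrations, 96-well plates. GI50 = concentration required for 50% inhibition of growth.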 Active and inactive are the calls of the source. No stated cut-off is given here; in the data, active = GI50 up to about 1.1 µM and inactive = higher.

Columns and labels:
Test in all cases: inhibition of tumour cell growth, NCI panel, 48 h
CAKI-1 = tested on: CAKI-1
HOP-92 = tested on: HOP-92
ACHN = tested on: ACHN
A498 = tested on: A498
SK-MEL-5 = tested on: SK-MEL-5
HOP-62 = tested on: HOP-62
TK-10 = tested on: TK-10
UO-31 = tested on: UO-31
RXF 631 = tested on: RXF 631
M19-MEL = tested on: M19-MEL
DMS-114 = tested on: DMS-114
RXF 393 = tested on: RXF 393
M14 = tested on: M14
LOX IMVI = tested on: LOX IMVI
OVCAR-3 = tested on: OVCAR-3
DMS-273 = tested on: DMS-273
A549 = tested on: A549
HCC 2998 = tested on: HCC 2998
SF-295 = tested on: SF-295
SN12C = tested on: SN12C
HT-29 = tested on: HT-29
MOLT-4 = tested on: MOLT-4
XF498 = tested on: XF498
NCI-H23 = tested on: NCI-H23
OVCAR-8 = tested on: OVCAR-8
OVCAR-5 = tested on: OVCAR-5
HCT-15 = tested on: HCT-15
K562 = tested on: K562
SK-MEL-28 = tested on: SK-MEL-28
OVCAR-4 = tested on: OVCAR-4
U-251 = tested on: U-251
Malme-3M = tested on: Malme-3M
SK-MEL-2 = tested on: SK-MEL-2
NCI-H522 = tested on: NCI-H522
NCI-H460 = tested on: NCI-H460
HL-60 = tested on: HL-60
SF-539 = tested on: SF-539
EKVX = tested on: EKVX
HOP-18 = tested on: HOP-18
CCRF-CEM = tested on: CCRF-CEM
DLD-1 = tested on: DLD-1
SW-620 = tested on: SW-620
RPMI-8226 = tested on: RPMI-8226
LXFL 529 = tested on: LXFL 529
KM-20L2 = tested on: KM-20L2
IGROV-1 = tested on: IGROV-1
UACC-62 = tested on: UACC-62
786-0 = tested on: 786-0
SNB-19 = tested on: SNB-19
HCT-116 = tested on: HCT-116
SNB-75 = tested on: SNB-75
SK-OV-3 = tested on: SK-OV-3
KM12 = tested on: KM12
SF-268 = tested on: SF-268
COLO 205 = tested on: COLO 205
UACC-257 = tested on: UACC-257

## COC(=O)CCC(=O)NC1C2CC3CC(C2)CC1C3 (centres undefined)
CAKI-1
  GI50: > 100 µM (inactive)
HOP-92
  GI50: > 100 µM (inactive)
ACHN
  GI50: > 100 µM (inactive)
A498
  GI50: > 100 µM (inactive)
SK-MEL-5
  GI50: > 100 µM (inactive)
HOP-62
  GI50: > 100 µM (inactive)
TK-10
  GI50: > 100 µM (inactive)
UO-31
  GI50: > 100 µM (inactive)
RXF 631
  GI50: > 100 µM (inactive)
M19-MEL
  GI50: > 100 µM (inactive)
DMS-114
  GI50: > 100 µM (inactive)
RXF 393
  GI50: > 100 µM (inactive)
M14
  GI50: > 100 µM (inactive)
LOX IMVI
  GI50: > 100 µM (inactive)
OVCAR-3
  GI50: > 100 µM (inactive)
DMS-273
  GI50: > 100 µM (inactive)
A549
  GI50: > 100 µM (inactive)
HCC 2998
  GI50: > 100 µM (inactive)
SF-295
  GI50: > 100 µM (inactive)
SN12C
  GI50: > 100 µM (inactive)
HT-29
  GI50: > 100 µM (inactive)
MOLT-4
  GI50: > 100 µM (inactive)
XF498
  GI50: > 100 µM (inactive)
NCI-H23
  GI50: > 100 µM (inactive)
OVCAR-8
  GI50: > 100 µM (inactive)
OVCAR-5
  GI50: > 100 µM (inactive)
HCT-15
  GI50: > 100 µM
K562
  GI50: > 100 µM (inactive)
SK-MEL-28
  GI50: > 100 µM (inactive)
OVCAR-4
  GI50: > 100 µM (inactive)
U-251
  GI50: > 100 µM (inactive)
Malme-3M
  GI50: > 100 µM (inactive)
SK-MEL-2
  GI50: > 100 µM (inactive)
NCI-H522
  GI50: > 100 µM (inactive)
NCI-H460
  GI50: > 100 µM (inactive)
HL-60
  GI50: > 100 µM (inactive)
SF-539
  GI50: > 100 µM (inactive)
EKVX
  GI50: > 100 µM (inactive)
HOP-18
  GI50: > 100 µM (inactive)
CCRF-CEM
  GI50: > 100 µM (inactive)
DLD-1
  GI50: > 100 µM (inactive)
SW-620
  GI50: > 100 µM (inactive)
RPMI-8226
  GI50: > 100 µM (inactive)
LXFL 529
  GI50: > 100 µM (inactive)
KM-20L2
  GI50: > 100 µM (inactive)
IGROV-1
  GI50: > 100 µM (inactive)
UACC-62
  GI50: > 100 µM (inactive)
786-0
  GI50: > 100 µM (inactive)
SNB-19
  GI50: > 100 µM (inactive)
HCT-116
  GI50: > 100 µM (inactive)
SNB-75
  GI50: > 43.1 µM (inactive)
SK-OV-3
  GI50: > 100 µM (inactive)
KM12
  GI50: > 100 µM (inactive)
SF-268
  GI50: > 100 µM (inactive)
COLO 205
  GI50: > 100 µM (inactive)
UACC-257
  GI50: > 100 µM (inactive)

## O=C1CCC(=O)C12CCc1ccccc12
CAKI-1
  GI50: > 100 µM (inactive)
HOP-92
  GI50: > 100 µM (inactive)
ACHN
  GI50: > 100 µM (inactive)
HOP-62
  GI50: > 100 µM (inactive)
TK-10
  GI50: > 100 µM (inactive)
UO-31
  GI50: > 100 µM (inactive)
RXF 631
  GI50: > 100 µM (inactive)
M19-MEL
  GI50: > 100 µM (inactive)
DMS-114
  GI50: > 100 µM (inactive)
RXF 393
  GI50: > 100 µM (inactive)
M14
  GI50: > 100 µM (inactive)
LOX IMVI
  GI50: > 100 µM (inactive)
OVCAR-3
  GI50: > 100 µM (inactive)
DMS-273
  GI50: > 100 µM (inactive)
A549
  GI50: > 100 µM (inactive)
HCC 2998
  GI50: > 100 µM (inactive)
SF-295
  GI50: > 100 µM (inactive)
SN12C
  GI50: > 100 µM (inactive)
HT-29
  GI50: > 100 µM (inactive)
XF498
  GI50: > 100 µM (inactive)
NCI-H23
  GI50: > 100 µM (inactive)
OVCAR-8
  GI50: > 100 µM (inactive)
HCT-15
  GI50: > 100 µM
K562
  GI50: > 10 µM (inactive)
SK-MEL-28
  GI50: > 100 µM (inactive)
OVCAR-4
  GI50: > 100 µM (inactive)
U-251
  GI50: > 100 µM (inactive)
Malme-3M
  GI50: > 100 µM (inactive)
NCI-H460
  GI50: > 100 µM (inactive)
HL-60
  GI50: > 100 µM (inactive)
EKVX
  GI50: > 100 µM (inactive)
HOP-18
  GI50: > 100 µM (inactive)
DLD-1
  GI50: > 100 µM (inactive)
SW-620
  GI50: > 100 µM (inactive)
LXFL 529
  GI50: > 100 µM (inactive)
KM-20L2
  GI50: > 100 µM (inactive)
IGROV-1
  GI50: > 100 µM (inactive)
UACC-62
  GI50: > 100 µM (inactive)
786-0
  GI50: > 100 µM (inactive)
SNB-75
  GI50: > 100 µM (inactive)
SK-OV-3
  GI50: > 100 µM (inactive)
SF-268
  GI50: > 100 µM (inactive)
COLO 205
  GI50: > 100 µM (inactive)
